The values that follow come from patent US20220144768A1, “SOLID STATE FORMS OF SIPONIMOD” (DR. REDDY'S LABORATORIES LIMITED, priority 2019, published 2022).

The series is described as follows: Solid form stability on storage, analyzed using PXRD. Type of series: physicochemical. As to the method:
The crystalline Form S2 of Siponimod prepared by the process of the present application is kept at about 25° C. After three months the solid was analyzed using PXRD. […] The crystalline Form S2 of Siponimod prepared by the process of the present application is kept at about 70° C. After three months the solid was analyzed using PXRD.
In another aspect, the present application provides stable amorphous Siponimod. […] The amorphous Siponimod prepared by the process of the present application is kept in a […] at about 5° C. After one year the solid was analyzed using PXRD.
The amorphous form of siponimod prepared in example-3 was kept in an amber colored glass bottle at 2-8° C. for one year and the solid was analyzed using PXRD.

Turning to `CCc1cc(/C(C)=N/OCc2ccc(C3CCCCC3)c(C(F)(F)F)c2)ccc1CN1CC(C(=O)O)C1` [crystalline Form S2 of Siponimod], the “stability of the crystalline form (time stable)” value (crystalline Form S2, storage, PXRD) was “stable for at least three months”. The “solid form after storage (PXRD)” value is “remains in crystalline Form S2” (kept at about 25° C., after three months, PXRD matches FIG. 3) and “remains in crystalline Form S2” (kept at about 70° C., after three months, PXRD matches FIG. 3).

With `CCc1cc(/C(C)=N/OCc2ccc(C3CCCCC3)c(C(F)(F)F)c2)ccc1CN1CC(C(=O)O)C1` [amorphous Siponimod], under “amorphous form, storage, PXRD”, the “stability of the amorphous form (time stable)” value was “stable for at least one year”. For the same molecule, the “solid form after storage (PXRD)” value (kept in a freezer at about 5° C., after one year, PXRD shown in FIG. 7) was “remains in amorphous form”.
